In ChEMBL document CHEMBL1129644, “Nucleosides with a twist. Can fixed forms of sugar ring pucker influence biological activity in nucleosides and oligonucleotides?” (J Med Chem, 1996):
≈ marks a conversion by molar mass, not a printed value.

What was measured:
[1] = Compound was tested for cytotoxicity against HSV-2 (herpes simplex type 2) of HFF (human foreskin fibroblasts) cells by cytopathogenic effect (CPE) inhibition assay; type: cell-based; conditions: HFF (human foreskin fibroblast) cells
[2] = Compound was tested for cytotoxicity against HSV-1 (herpes simplex type-1) of HFF (human foreskin fibroblasts) cells by cytopathogenic effect (CPE) inhibition assay; type: cell-based; conditions: HFF (human foreskin fibroblast) cells
[3] = Compound was tested for cytotoxicity against HCMV (human cytomegalovirus) of HFF(human foreskin fibroblasts) cells by cytopathogenic effect (CPE) inhibition assay; type: cell-based; conditions: HFF (human foreskin fibroblast) cells
[4] = (§1) Compound was tested for cytotoxicity against HSV-2 (herpes simplex type-2) of HFF (human foreskin fibroblasts) cells in different experiment; type: cell-based; conditions: HFF (human foreskin fibroblast) cells
[5] = Compound was tested for cytotoxicity against HSV-1 (herpes simplex type-1) of HFF (human foreskin fibroblasts) cells; type: cell-based; conditions: HFF (human foreskin fibroblast) cells
[6] = (§2) Compound was tested for cytotoxicity against HSV-2 (herpes simplex type-2) of HFF (human foreskin fibroblasts) cells; type: cell-based; conditions: HFF (human foreskin fibroblast) cells
[7] = Compound was tested for cytotoxicity against HSV-1 (herpes simplex type-1) of HFF (human foreskin fibroblasts) cells in different experiment; type: cell-based; conditions: HFF (human foreskin fibroblast) cells
[8] = as §2; conditions: human alphaherpesvirus 2, HFF (human foreskin fibroblast) cells
[9] = as §1; conditions: human alphaherpesvirus 2, HFF (human foreskin fibroblast) cells

Nc1ccn([C@H]2C[C@H](O)[C@@]3(O)CC23)c(=O)n1 (stereo not given in full)
CC50 [1]: 96 µg/mL (≈ 430 µM) | CC50 [2]: 68 µg/mL (≈ 305 µM) | CC50 [3]: 8.8 µg/mL (≈ 39.4 µM)

Cc1cn(C2C[C@H](O)[C@@H](O)C2)c(=O)[nH]c1=O
CC50 [4]: > 10 µg/mL | CC50 [5]: > 10 µg/mL

Nc1nc(O)c2ncn([C@H]3C[C@H](O)[C@@]4(O)CC34)c2n1 (stereo not given in full)
CC50 [1]: > 100 µg/mL | CC50 [2]: > 100 µg/mL | CC50 [3]: 64.3 µg/mL (≈ 244 µM)

O=c1ccn([C@H]2C[C@H](O)[C@@]3(O)CC23)c(=O)[nH]1 (stereo not given in full)
CC50 [1]: > 100 µg/mL | CC50 [2]: > 100 µg/mL | CC50 [3]: > 100 µg/mL

Cc1cn([C@H]2C[C@H](O)[C@@]3(O)CC23)c(=O)[nH]c1=O (stereo not given in full)
CC50 [1]: > 100 µg/mL | CC50 [6]: > 20 µg/mL | CC50 [4]: > 20 µg/mL | CC50 [5]: > 20 µg/mL | CC50 [2]: > 100 µg/mL | CC50 [7]: > 20 µg/mL | CC50 [3]: 63.7 µg/mL (≈ 267 µM)

Nc1ncnc2c1ncn2[C@H]1C[C@H](O)[C@@]2(O)CC12 (stereo not given in full)
CC50 [1]: > 100 µg/mL | CC50 [2]: > 100 µg/mL | CC50 [3]: > 100 µg/mL

Cc1cn([C@@]23CC2[C@H](O)[C@@H](O)C3)c(=O)[nH]c1=O (stereo not given in full)
CC50 [8]: > 50 µg/mL | CC50 [9]: > 20 µg/mL | CC50 [5]: > 50 µg/mL | CC50 [7]: > 20 µg/mL
